Measured values: publication PMC5218480 (PLoS ONE, 2017)

System: MV-4-11 cells
Assay: Gene expression microarray analysis (Affymetrix PrimeView) and GSEA
Format: cell-based, human
Parameters: RFU PODN (11730768_x_at) / Fold change /veh PODN (11730768_x_at) / RFU LINC00158 (11744669_a_at) / Fold change /veh LINC00158 (11744669_a_at) / RFU DUSP10 (11751237_a_at) / Fold change /veh DUSP10 (11751237_a_at) / RFU ID3 (11757404_x_at) / Fold change /veh ID3 (11757404_x_at) / RFU PLEKHG5 (11737974_s_at) / Fold change /veh PLEKHG5 (11737974_s_at) / RFU LRRC4B (11730491_at) / Fold change /veh LRRC4B (11730491_at) / RFU GIMAP4 (11747438_a_at) / Fold change /veh GIMAP4 (11747438_a_at) / RFU KRT8 (11758183_x_at) / Fold change /veh KRT8 (11758183_x_at) / RFU CNN1 (11734310_a_at) / Fold change /veh CNN1 (11734310_a_at) / RFU VPS37D (11726825_at) / Fold change /veh VPS37D (11726825_at) / RFU C10orf10 (11716522_x_at) / Fold change /veh C10orf10 (11716522_x_at) / RFU KIR2DL2 /// KIR2DL4 /// KIR2DL5A /// KIR2DL5B /// KIR2DS1 /// KIR2DS2 /// KIR2DS3 /// KIR2DS4 /// KIR3DL3 /// KIR3DL3 /// KIR3DS1 (11738374_at) / Fold change /veh KIR2DL2 /// KIR2DL4 /// KIR2DL5A /// KIR2DL5B /// KIR2DS1 /// KIR2DS2 /// KIR2DS3 /// KIR2DS4 /// KIR3DL3 /// KIR3DL3 /// KIR3DS1 (11738374_at) / RFU C1QL1 (11718748_at) / Fold change /veh C1QL1 (11718748_at) / RFU TMPRSS4 (11747572_a_at) / Fold change /veh TMPRSS4 (11747572_a_at) / RFU HAMP (11756126_x_at) / Fold change /veh HAMP (11756126_x_at) / RFU RNFT2 (11725882_a_at) / Fold change /veh RNFT2 (11725882_a_at) / RFU NR4A2 (11747474_a_at) / Fold change /veh NR4A2 (11747474_a_at) / RFU ABCC12 (11746883_a_at) / Fold change /veh ABCC12 (11746883_a_at) / RFU TMEM136 (11760407_x_at) / Fold change /veh TMEM136 (11760407_x_at) / RFU CLDN22 /// WWC2 (11732394_at) / Fold change /veh CLDN22 /// WWC2 (11732394_at) / RFU HLA-DPB1 (11760878_x_at) / Fold change /veh HLA-DPB1 (11760878_x_at) / RFU SPINT1 (11716480_a_at) / Fold change /veh SPINT1 (11716480_a_at) / RFU GAP43 (11754022_s_at) / Fold change /veh GAP43 (11754022_s_at) / RFU A4GNT (11735810_at) / Fold change /veh A4GNT (11735810_at) / RFU PRB3 (11715151_x_at) / Fold change /veh PRB3 (11715151_x_at) / RFU TUBB4B (11761932_at) / Fold change /veh TUBB4B (11761932_at) / RFU CAPN14 (11732068_a_at) / Fold change /veh CAPN14 (11732068_a_at) / RFU TMCC2 (11721928_a_at) / Fold change /veh TMCC2 (11721928_a_at) / RFU IRGQ (11745062_a_at) / Fold change /veh IRGQ (11745062_a_at) / RFU FAM174B (11720279_a_at) / Fold change /veh FAM174B (11720279_a_at) / RFU TMPRSS4 (11748680_a_at) / Fold change /veh TMPRSS4 (11748680_a_at) / RFU FAM212B (11763350_a_at) / Fold change /veh FAM212B (11763350_a_at) / RFU PLEKHG5 (11743358_a_at) / Fold change /veh PLEKHG5 (11743358_a_at) / RFU ZSCAN30 (11745921_a_at) / Fold change /veh ZSCAN30 (11745921_a_at) / RFU CMKLR1 (11741424_a_at) / Fold change /veh CMKLR1 (11741424_a_at) / RFU LOC101060620 /// MAPK8IP1 (11723275_at) / Fold change /veh LOC101060620 /// MAPK8IP1 (11723275_at) / RFU SPTSSB (11747773_x_at) / Fold change /veh SPTSSB (11747773_x_at) / RFU PRSS12 (11739890_at) / Fold change /veh PRSS12 (11739890_at) / RFU BIN1 (11741810_x_at) / Fold change /veh BIN1 (11741810_x_at) / RFU WNT11 (11732464_a_at) / Fold change /veh WNT11 (11732464_a_at) / RFU C10orf10 (11716521_a_at) / Fold change /veh C10orf10 (11716521_a_at) / RFU C5orf56 (11738089_at) / Fold change /veh C5orf56 (11738089_at) / RFU CYB561 (11721691_x_at) / Fold change /veh CYB561 (11721691_x_at) / RFU ANKRD19P (11752326_a_at) / Fold change /veh ANKRD19P (11752326_a_at) / RFU OR2T12 /// OR2T33 /// OR2T8 (11738714_s_at) / Fold change /veh OR2T12 /// OR2T33 /// OR2T8 (11738714_s_at) / RFU VCAN (11748164_a_at) / Fold change /veh VCAN (11748164_a_at) / RFU JSRP1 (11732532_at) / Fold change /veh JSRP1 (11732532_at) / RFU KRTAP10-11 (11738290_x_at) / Fold change /veh KRTAP10-11 (11738290_x_at) / RFU MYO3A (11730013_a_at) / Fold change /veh MYO3A (11730013_a_at) / RFU EBF3 (11725865_a_at) / Fold change /veh EBF3 (11725865_a_at) / RFU CAMK2N1 (11719241_x_at) / Fold change /veh CAMK2N1 (11719241_x_at) / RFU C5orf56 (11738088_a_at) / Fold change /veh C5orf56 (11738088_a_at) / RFU OLFML3 (11715873_a_at) / Fold change /veh OLFML3 (11715873_a_at) / RFU LOC100653217 /// NTM (11731650_a_at) / Fold change /veh LOC100653217 /// NTM (11731650_a_at) / RFU MAPK11 (11762145_a_at) / Fold change /veh MAPK11 (11762145_a_at) / RFU FIZ1 (11724087_x_at) / Fold change /veh FIZ1 (11724087_x_at) / RFU OASL (11726364_x_at) / Fold change /veh OASL (11726364_x_at) / RFU SOX15 (11748057_x_at) / Fold change /veh SOX15 (11748057_x_at) / RFU CD79A (11719716_a_at) / Fold change /veh CD79A (11719716_a_at) / RFU HIST1H1D (11736915_at) / Fold change /veh HIST1H1D (11736915_at) / RFU CASKIN2 (11723855_a_at) / Fold change /veh CASKIN2 (11723855_a_at) / RFU LOC730098 (11760151_x_at) / Fold change /veh LOC730098 (11760151_x_at) / RFU OR4N2 (11742367_at) / Fold change /veh OR4N2 (11742367_at) / RFU PRRT2 (11749266_a_at) / Fold change /veh PRRT2 (11749266_a_at) / RFU SNX32 (11753110_a_at) / Fold change /veh SNX32 (11753110_a_at) / RFU CDHR5 (11726645_a_at) / Fold change /veh CDHR5 (11726645_a_at) / RFU RCAN1 (11760418_a_at) / Fold change /veh RCAN1 (11760418_a_at) / RFU FAM167A (11723789_a_at) / Fold change /veh FAM167A (11723789_a_at) / RFU FAM26E (11764081_at) / Fold change /veh FAM26E (11764081_at) / RFU ISYNA1 (11749810_s_at) / Fold change /veh ISYNA1 (11749810_s_at) / RFU ACY1 (11761880_at) / Fold change /veh ACY1 (11761880_at) / RFU 11764098_at / Fold change /veh 11764098_at / RFU SAMD14 (11745864_x_at) / Fold change /veh SAMD14 (11745864_x_at) / RFU NPB (11741838_a_at) / Fold change /veh NPB (11741838_a_at) / RFU TMPRSS6 (11731388_a_at) / Fold change /veh TMPRSS6 (11731388_a_at) / RFU KRTAP10-2 (11738614_at) / Fold change /veh KRTAP10-2 (11738614_at) / RFU ARHGAP8 /// PRR5-ARHGAP8 (11727945_x_at) / Fold change /veh ARHGAP8 /// PRR5-ARHGAP8 (11727945_x_at) / RFU KRTAP5-7 /// NADSYN1 (11734609_at) / Fold change /veh KRTAP5-7 /// NADSYN1 (11734609_at) / RFU RASL12 (11751679_a_at) / Fold change /veh RASL12 (11751679_a_at) / RFU CDKN2B (11736163_a_at) / Fold change /veh CDKN2B (11736163_a_at) / RFU PRF1 (11729649_at) / Fold change /veh PRF1 (11729649_at) / RFU, ZNF638 /// ZNF638-IT1 / Fold change vs veh, ZNF638 /// ZNF638-IT1 / RFU, PANK3 / Fold change vs veh, PANK3 / RFU, SH3YL1 / Fold change vs veh, SH3YL1 / RFU, ZEB2 / Fold change vs veh, ZEB2 / RFU, NRIP1 / Fold change vs veh, NRIP1 / RFU, PTTG1IP / Fold change vs veh, PTTG1IP / RFU, CAPN2 / Fold change vs veh, CAPN2 / RFU, MED14 / Fold change vs veh, MED14 / RFU, SNORA58 / Fold change vs veh, SNORA58 / RFU, C1orf63 / Fold change vs veh, C1orf63 / RFU, LRRFIP1 / Fold change vs veh, LRRFIP1 / RFU, NDUFAF7 / Fold change vs veh, NDUFAF7 / RFU, SLC12A2 / Fold change vs veh, SLC12A2 / RFU, IBTK / Fold change vs veh, IBTK / RFU, ESF1 / Fold change vs veh, ESF1 / Fold change vs veh, TMEM50B / RFU, TAOK1 / Fold change vs veh, TAOK1 / RFU, ACBD3 / Fold change vs veh, ACBD3 / RFU, TMA16 / Fold change vs veh, TMA16 / RFU, RWDD3 / Fold change vs veh, RWDD3 / RFU, BCAT1 / Fold change vs veh, BCAT1 / RFU, EDEM3 / Fold change vs veh, EDEM3 / RFU, TMEM33 / Fold change vs veh, TMEM33 / RFU, WDR75 / Fold change vs veh, WDR75 / RFU, AHCTF1 / Fold change vs veh, AHCTF1 / RFU, TFRC / Fold change vs veh, TFRC / RFU, ZDHHC17 / Fold change vs veh, ZDHHC17 / RFU, NOM1 / Fold change vs veh, NOM1 / RFU, ARL8B / Fold change vs veh, ARL8B / RFU, ZBTB11 / Fold change vs veh, ZBTB11 / RFU, TAMM41 / Fold change vs veh, TAMM41 / RFU, KIAA1704 /// LOC100996395 / Fold change vs veh, KIAA1704 /// LOC100996395 / RFU, ING1 / Fold change vs veh, ING1 / RFU, TRMT61B / Fold change vs veh, TRMT61B / RFU, FUBP3 / Fold change vs veh, FUBP3 / RFU, TP53 / Fold change vs veh, TP53 / RFU, TNKS2 / Fold change vs veh, TNKS2 / RFU, ZFP14 / Fold change vs veh, ZFP14 / RFU, ACTR2 / Fold change vs veh, ACTR2 / RFU, PPP3R1 / Fold change vs veh, PPP3R1 / RFU, PIK3R1 / Fold change vs veh, PIK3R1 / RFU, HNRNPA1 / Fold change vs veh, HNRNPA1 / RFU, RNF170 / Fold change vs veh, RNF170 / RFU, ZNF28 / Fold change vs veh, ZNF28 / RFU, RNGTT / Fold change vs veh, RNGTT / RFU, OGT / Fold change vs veh, OGT / RFU, BRD1 / Fold change vs veh, BRD1 / RFU, MARS / Fold change vs veh, MARS / RFU, ZNF655 / Fold change vs veh, ZNF655 / RFU, FAHD1 / Fold change vs veh, FAHD1 / RFU, BDP1 / Fold change vs veh, BDP1 / RFU, LRRCC1 / Fold change vs veh, LRRCC1 / RFU, ARID1A / Fold change vs veh, ARID1A / RFU, ZNF146 / Fold change vs veh, ZNF146 / RFU, ZNF330 / Fold change vs veh, ZNF330 / RFU, GPN3 / Fold change vs veh, GPN3 / RFU, C9orf123 / Fold change vs veh, C9orf123 / RFU, N4BP2L2 / Fold change vs veh, N4BP2L2 / RFU, ARFIP1 / Fold change vs veh, ARFIP1 / RFU, FAM179B / Fold change vs veh, FAM179B / RFU, BCL10 / Fold change vs veh, BCL10 / RFU, UHRF1BP1L / Fold change vs veh, UHRF1BP1L / RFU, BET1 / Fold change vs veh, BET1 / RFU, CNOT2 / Fold change vs veh, CNOT2 / RFU, ZNF268 / Fold change vs veh, ZNF268 / Fold change vs veh, ZNF507 / RFU, DGCR2 / Fold change vs veh, DGCR2 / RFU, WDSUB1 / Fold change vs veh, WDSUB1 / Fold change vs veh, HSP90B1 /// MIR3652 / RFU, ADSS / Fold change vs veh, ADSS / RFU, GK / Fold change vs veh, GK / RFU, ZNF148 / Fold change vs veh, ZNF148 / RFU, TAF9 / Fold change vs veh, TAF9 / RFU, SLC1A5 / Fold change vs veh, SLC1A5 / RFU, SLMO2 / Fold change vs veh, SLMO2 / RFU, ABCC4 / Fold change vs veh, ABCC4 / RFU, LOC101060439 /// RAP1B / Fold change vs veh, LOC101060439 /// RAP1B / RFU, RFX7 / Fold change vs veh, RFX7 / RFU, GTPBP10 / Fold change vs veh, GTPBP10 / RFU, CNEP1R1 / Fold change vs veh, CNEP1R1 / RFU, BIVM-ERCC5 /// ERCC5 / Fold change vs veh, BIVM-ERCC5 /// ERCC5 / RFU, ILF3 / Fold change vs veh, ILF3 / RFU 11762660_at / Fold change /veh 11762660_at / RFU VCAN (11757783_s_at) / Fold change /veh VCAN (11757783_s_at) / RFU DDX43 (11728927_at) / Fold change /veh DDX43 (11728927_at) / RFU KRT8 (11758188_x_at) / Fold change /veh KRT8 (11758188_x_at) / RFU NKD1 (11759106_at) / Fold change /veh NKD1 (11759106_at) / RFU SRD5A1 (11742802_a_at) / Fold change /veh SRD5A1 (11742802_a_at) / RFU TPSAB1 /// TPSB2 (11721975_s_at) / Fold change /veh TPSAB1 /// TPSB2 (11721975_s_at) / RFU GSTM3 (11746129_a_at) / Fold change /veh GSTM3 (11746129_a_at) / RFU IL23R (11737362_x_at) / Fold change /veh IL23R (11737362_x_at) / RFU TMEM51 (11727254_a_at) / Fold change /veh TMEM51 (11727254_a_at) / RFU PIWIL2 (11732686_x_at) / Fold change /veh PIWIL2 (11732686_x_at) / RFU ORM1 (11744905_x_at) / Fold change /veh ORM1 (11744905_x_at) / RFU CCDC152 (11743942_at) / Fold change /veh CCDC152 (11743942_at) / RFU ECM1 (11717891_a_at) / Fold change /veh ECM1 (11717891_a_at) / RFU IL23R (11748794_a_at) / Fold change /veh IL23R (11748794_a_at) / RFU TNFAIP8L3 (11732012_x_at) / Fold change /veh TNFAIP8L3 (11732012_x_at) / RFU MBOAT4 (11741988_at) / Fold change /veh MBOAT4 (11741988_at) / RFU 11764193_at / Fold change /veh 11764193_at / RFU TMEM53 (11763286_at) / Fold change /veh TMEM53 (11763286_at) / RFU MAGEB2 (11727129_at) / Fold change /veh MAGEB2 (11727129_at) / RFU TMEM200A (11744735_a_at) / Fold change /veh TMEM200A (11744735_a_at) / RFU CCDC152 (11751479_a_at) / Fold change /veh CCDC152 (11751479_a_at) / RFU FAM211A (11726209_a_at) / Fold change /veh FAM211A (11726209_a_at) / RFU RGS16 (11746705_a_at) / Fold change /veh RGS16 (11746705_a_at) / RFU VCAN (11755009_s_at) / Fold change /veh VCAN (11755009_s_at) / RFU RHOB (11743442_s_at) / Fold change /veh RHOB (11743442_s_at) / RFU RGS16 (11720943_a_at) / Fold change /veh RGS16 (11720943_a_at) / RFU RGS16 (11720944_at) / Fold change /veh RGS16 (11720944_at) / RFU, VPS4B / Fold change vs veh, VPS4B / RFU, CREB1 / Fold change vs veh, CREB1 / RFU, DNAJC13 / Fold change vs veh, DNAJC13 / RFU, GNAQ / Fold change vs veh, GNAQ / RFU, CDK5R1 / Fold change vs veh, CDK5R1 / RFU, ZRANB3 / Fold change vs veh, ZRANB3 / RFU, CUL4A / Fold change vs veh, CUL4A / RFU, CCNY / Fold change vs veh, CCNY / RFU, UFL1 / Fold change vs veh, UFL1 / RFU, COG3 / Fold change vs veh, COG3 / RFU, DIAPH2 / Fold change vs veh, DIAPH2 / RFU, SKA2 / Fold change vs veh, SKA2 / RFU, AFF3 / Fold change vs veh, AFF3 / RFU, LMF1 / Fold change vs veh, LMF1 / RFU, IPO11 / Fold change vs veh, IPO11 / RFU, DFFB / Fold change vs veh, DFFB / RFU, FOXP1 / Fold change vs veh, FOXP1 / RFU, CARD8 / Fold change vs veh, CARD8 / RFU, STRN3 / Fold change vs veh, STRN3 / RFU, ADK / Fold change vs veh, ADK / RFU, RASSF2 / Fold change vs veh, RASSF2 / RFU, WIPF1 / Fold change vs veh, WIPF1 / RFU, LARP1B / Fold change vs veh, LARP1B / RFU, RASA1 / Fold change vs veh, RASA1 / RFU, RB1 / Fold change vs veh, RB1 / RFU, PPFIA1 / Fold change vs veh, PPFIA1 / RFU, MAT2A / Fold change vs veh, MAT2A / RFU, CCT5 / Fold change vs veh, CCT5 / RFU, WDR92 / Fold change vs veh, WDR92 / RFU, CUX1 / Fold change vs veh, CUX1 / RFU, TTC7A / Fold change vs veh, TTC7A / RFU, TMEM135 / Fold change vs veh, TMEM135 / RFU, DEPTOR / Fold change vs veh, DEPTOR / RFU, CPM / Fold change vs veh, CPM / RFU, DNAJB6 / Fold change vs veh, DNAJB6 / RFU, CACNA2D3 / Fold change vs veh, CACNA2D3 / RFU, DTX4 / Fold change vs veh, DTX4 / RFU, TFCP2 / Fold change vs veh, TFCP2 / RFU, GMCL1 /// GMCL1P1 / Fold change vs veh, GMCL1 /// GMCL1P1 / RFU, AEBP2 / Fold change vs veh, AEBP2 / RFU, SNHG1 /// SNORD22 /// SNORD25 /// SNORD26 /// SNORD27 /// SNORD28 /// SNORD29 /// SNORD31 / Fold change vs veh, SNHG1 /// SNORD22 /// SNORD25 /// SNORD26 /// SNORD27 /// SNORD28 /// SNORD29 /// SNORD31 / Fold change (Aza/veh), C12orf56 (ProbeSet 11735607_a_at) / Fold change (ACY-1035/veh), C12orf56 (ProbeSet 11735607_a_at) / Fold change (Aza/veh), FGFR1OP (ProbeSet 11751329_s_at) / Fold change (ACY-1035/veh), FGFR1OP (ProbeSet 11751329_s_at) / Fold change (Aza/veh), VPS36 (ProbeSet 11739960_a_at) / Fold change (ACY-1035/veh), VPS36 (ProbeSet 11739960_a_at) / RFU SYPL1 (11715823_x_at) / Fold change /veh SYPL1 (11715823_x_at) / RFU IGFBP7 (11715501_s_at) / Fold change /veh IGFBP7 (11715501_s_at) / RFU REEP3 (11722064_at) / Fold change /veh REEP3 (11722064_at) / RFU IGLL1 (11728026_x_at) / Fold change /veh IGLL1 (11728026_x_at): dose or concentration left out as unconfirmed
Conditions: ProbeSet 11745789_a_at; LIST D

Nc1ncn([C@@H]2O[C@H](CO)[C@@H](O)[C@H]2O)c(=O)n1 [azacitidine]
RFU, TMEM135: 108.05 RFU
